Values of other authors, collected in PMC7571151, “Design, Synthesis and Bioactivity Evaluation of 4,6-Disubstituted Pyrido[3,2-d]pyrimidine Derivatives as Mnk and HDAC Inhibitors” (Molecules, 2020).

System: Daudi non-Hodgkin lymphoma xenograft model
Set-up: method as in PMID 22693356
Details: cited from earlier work

Question: Which tumor growth (Daudi non-Hodgkin lymphoma xenograft model) does the source give for `COc1ccc(-c2nc(N3CCOCC3)c3sc(CN(C)c4ncc(C(=O)NO)cn4)cc3n2)cn1` [CUDC-907] here?
Answer: The tumor growth was “inhibited tumor growth in a dose-dependent manner”.

Question: And the “Ac-H3 and p-AKT levels” value (in vivo anti-tumor activity studies)?
Answer: The value was “accumulation of Ac-H3 and a decrease in p-AKT levels”.
